Measured values as given in the NIST ThermoML archive (doi:10.1021/acs.jced.6b00803).
Numbers after ± are expanded uncertainties.

Conditions: 298.15 K; 101.33 kPa; Liquid; Vibrating tube method

Row | Structure (SMILES) | mass density [kg/m3]
1 | CC(=O)CCc1ccccc1 [4-phenyl-2-butanone] | 984.742 ± 4
2 | CC(=O)OCc1ccccc1 [benzyl ethanoate] | 1051.1 ± 4.2
3 | CCCCCCCCCCCC [dodecane] | 745.508 ± 3
4 | CCCCCCCCCCCCCCCC [hexadecane] | 770.221 ± 3.1
5 | CCCCCCCCCCCCCC [tetradecane] | 759.275 ± 3
